The subject of series [1] is human highly metastatic hepatoma cells MHCC-97H. The series is described as follows: MTT anti-tumor cell proliferation test. The format is cell-based. The settings on record: for IC50: Homo sapiens, MHCC97H, MTT. On the procedure: The novel pyrimidine derivatives of the invention were tested on their anti-tumor activities. Human highly metastatic hepatoma cells MHCC-97H were employed in the MTT process to evaluate the anti-tumor cell proliferation activities. The specific operation steps were as below: tumor cells were inoculated in a 96-well plate by a certain number of cells, at a cell density of 5×10^3-10×10^3/well. They were incubated in an incubator at 37° C. and a carbon dioxide concentration of 5% overnight, into which was then added the compound samples to be tested. After incubation for 72 hours, MTT was added to keep on for 4 hours, and dissolved with the addition of DMSO with shaking, and then detected with a microplate reader (570 nm).
(1) The anti-tumor cell activities of (R)-1D228 are tested. With Tepotinib and (R)-4D288 as the control, human highly metastatic hepatoma cell MHCC-97Hwas selected to evaluate the antitumor cell proliferative activities through the MTT process. The specific operation steps were as below: the tumor cells were inoculated in a 96-well culture plate following a certain number of cells, the cell density was 5×103-10×10^3/well. After cultivation in an incubator at 37° C. and at a CO2 concentration of 5% overnight, the compound samples to test were added. After cultivation for 72 hours, MTT was added to continue the cultivation for 4 hours. DMSO was then added to dissolve with stirring, and detected with a microplate reader (570 nm).

The subject of a further series is tumor in naked mice. The series can be described thus: Anti-tumor test in naked mice. The format is in vivo. Particulars: once a day for 2 weeks.
Another series can be described thus: in vitro. Particulars: for half-life: microsomes. On the procedure:
Firstly, a SD rat (200-300 g) was fasted for 12 hours, and then infused rapidly with normal saline. Liver was taken out from the rat, from which liver microsomes were extracted at 0-4° C., ready for use after calibrating the concentration of liver microsomes. At 37° C., liver microsomes were incubated in combination with a certain concentration of compounds and auxiliary reagents for a period of time. The reaction was then quenched with acetonitrile.

A short description of series [2]: Pharmacokinetic properties in mice (IV and PO). The settings on record: in vivo; for AUC(0-inf) / clearance / half-life / bioavailability: Sprague-Dawley (SD); for Vd / Cmax / Tmax: Sprague-Dawley.
Series [3] can be described thus: Body weights of animals during administration. The format is in vivo, naked mice. The settings on record: 8 mg/kg, in g (unit assumed). An excerpt:
The body weights of animals in each group during administration are shown in FIG. 9 and Table 7, showing that there were no significant changes in the body weights of mice and there were not abnormal behaviors of mice during administration.

[4] abbreviates: incubation 72 hours, Table 1, read-out: Human highly metastatic hepatoma cell MHCC-97H (μM), median inhibitory concentration IC50.
The mark [5] stands for this setting: cultivation 72 hours, Table 4, read-out: Human highly metastatic hepatoma cell MHCC-97H (μM), inhibitory activity.

The results in this text go back to US12168654B2, “Pyrimidine derivative containing one deuterium atom and preparation process and use thereof” (Guangdong Lewwin Pharmaceutical Research Institute Co., Ltd., priority 2018, dated 2024).

Read-outs that look alike come from different tables or passages of the source.

For `CC(c1cccc(-c2ncc(OCC3CCN(C)CC3)cn2)c1)n1nc(-c2cccc(C#N)c2)ccc1=O` (racemic) [(±)-5b], in series [1] (setting [4]), the IC50 came out at 0.0353 µM.

With `[2H][C@@](C)(c1cccc(-c2ncc(OCC3CCN(C)CC3)cn2)c1)n1nc(-c2cccc(C#N)c2)ccc1=O` [(R)-1D228], in the series with tumor in naked mice (4 mg/kg intragastric), the “Relative tumor proliferation rate T/C (%)” value turned out to be 1.78%, the “Tumor inhibition rate (%)” value worked out at 98.3% and the Tumor weights was 0.011 ± 0.006. Moreover, in the series with tumor in naked mice (8 mg/kg intragastric), the “Relative tumor proliferation rate T/C (%)” value turned out to be 1.17%, the “Tumor inhibition rate (%)” value turned out to be 98.6% and the Tumor weights is on record as 0.009 ± 0.007.

For the compound `C[C@H](c1cccc(-c2ncc(OCC3CCN(C)CC3)cn2)c1)n1nc(-c2cccc(C#N)c2)ccc1=O` [(R)-5b], the IC50 in series [1] (setting [4]) was 0.0037 µM. In addition, the “activity for inhibiting tumor cells, times that of (S)-5b” value in series [1] (MHCC-97H, relative to (S)-5b) is reported as 31.9 times. Further, in series [1] (MHCC-97H, relative to (±)-5b), the “activity for inhibiting tumor cells, times that of (±)-5b” value was found to be 9.5 times. In the series “in vitro” (SD, rat), the K is 0.0259 min⁻¹ and the half-life stood at 0.447 h. In addition, in series [2] (iv, 2 mg/kg), the AUC(0-inf) came out at 2140 ng·h/mL, the clearance is 15.5 mL/min/kg, the half-life is 4.23 h and the Vd turned out to be 5.69 L/kg. In series [2] (po, 5 mg/kg), the AUC(0-inf) turned out to be 4580 ng·h/mL, the bioavailability worked out at 86%, the Cmax worked out at 495 ng/mL and the time to peak (Tmax) came out at 2 h.

Turning to `[2H]C([2H])([2H])[C@]([2H])(c1cccc(-c2ncc(OCC3CCN(C)CC3)cn2)c1)n1nc(-c2cccc(C#N)c2)ccc1=O` [(R)-14], in “in vitro” (SD, rat), the K was 0.0198 min⁻¹ and the half-life was found to be 0.583 h. In series [2] (iv, 2 mg/kg), this compound gave an AUC(0-inf) of 2440 ng·h/mL, a clearance of 13.7 mL/min/kg, a half-life of 4.48 h and a Vd of 5.29 L/kg. For the same compound, in series [2] (po, 5 mg/kg), the AUC(0-inf) was 6310 ng·h/mL, the bioavailability was 104%, the Cmax worked out at 614 ng/mL and the time of peak concentration (Tmax) came out at 4 h. In the series with tumor in naked mice (4 mg/kg intragastric), the “Relative tumor proliferation rate T/C (%)” value was 2.28%, the “Tumor inhibition rate (%)” value was determined as 98.0% and the Tumor weights came to 0.013 ± 0.015. Moreover, in the series with tumor in naked mice (8 mg/kg intragastric), the “Relative tumor proliferation rate T/C (%)” value came to 1.59%, the “Tumor inhibition rate (%)” value worked out at 98.2% and the Tumor weights stood at 0.012 ± 0.006.

`C[C@@H](c1cccc(-c2ncc(OCC3CCN(C)CC3)cn2)c1)n1nc(-c2cccc(C#N)c2)ccc1=O` [(S)-5b]: in series [1] (setting [4]), the IC50 is 0.118 µM.

With `CC(c1cccc(-c2ncc(OCCCN(C)C)cn2)c1)n1nc(-c2cccc(C#N)c2)ccc1=O` (centres unmarked) [Compound 1], in series [1] (setting [4]), the IC50 is 0.0476 µM.

As for `[2H][C@@](C)(c1cccc(-c2ncc(OCC3CCN(C)CC3)cn2)c1)n1nc(-c2cccc(C#N)c2)ccc1=O` [Compound 1], the IC50 in series [1] (setting [5]) turned out to be 0.0033 µM.

Take `C[C@H](c1cccc(-c2ncc(OCCCN(C)C)cn2)c1)n1nc(-c2cccc(C#N)c2)ccc1=O` [Compound 2]: in series [1] (setting [4]), the IC50 was determined as 0.014 µM.

Regarding `[2H]C([2H])([2H])[C@]([2H])(c1cccc(-c2ncc(OCC3CCN(C)CC3)cn2)c1)n1nc(-c2cccc(C#N)c2)ccc1=O` [Compound 2], in series [1] (setting [5]), the IC50 was 0.0037 µM.

As to `CN1CCC(COc2cnc(-c3cccc(Cn4nc(-c5cccc(C#N)c5)ccc4=O)c3)nc2)CC1` [Compound 3], in series [1] (setting [5]), the IC50 is 0.0134 µM.

For `C[C@@H](c1cccc(-c2ncc(OCCCN(C)C)cn2)c1)n1nc(-c2cccc(C#N)c2)ccc1=O` [Compound 3], the IC50 in series [1] (setting [4]) came out at 1.04 µM.

As for `CC(c1cccc(-c2ncc(OCC3CCN(C)CC3)cn2)c1)n1nc(-c2cccc(C#N)c2)ccc1=O` (centres unmarked) [Compound 4], in series [1] (setting [4]), the IC50 came to 0.0353 µM.

Turning to `CC(c1cccc(-c2ncc(SCCCN(C)C)cn2)c1)n1nc(-c2cccc(C#N)c2)ccc1=O` (centres unmarked) [Compound 7], in series [1] (setting [4]), the IC50 came out at 0.0272 µM.

On to `C[C@H](c1cccc(-c2ncc(SCCCN(C)C)cn2)c1)n1nc(-c2cccc(C#N)c2)ccc1=O` [Compound 8], for which the IC50 in series [1] (setting [4]) worked out at 0.0139 µM.

Take `C[C@@H](c1cccc(-c2ncc(SCCCN(C)C)cn2)c1)n1nc(-c2cccc(C#N)c2)ccc1=O` [Compound 9]: the IC50 in series [1] (setting [4]) came out at 0.189 µM.

As to `CC(c1cccc(-c2ncc([Se]CCCN(C)C)cn2)c1)n1nc(-c2cccc(C#N)c2)ccc1=O` (centres unmarked) [Compound 10], the IC50 in series [1] (setting [4]) stood at 0.027 µM.

For the compound `C[C@H](c1cccc(-c2ncc([Se]CCCN(C)C)cn2)c1)n1nc(-c2cccc(C#N)c2)ccc1=O` [Compound 11], the IC50 in series [1] (setting [4]) was found to be 0.0117 µM.

For `C[C@@H](c1cccc(-c2ncc([Se]CCCN(C)C)cn2)c1)n1nc(-c2cccc(C#N)c2)ccc1=O` [Compound 12], the IC50 in series [1] (setting [4]) was determined as 0.415 µM.

Consider `[2H]C([2H])([2H])[C@H](c1cccc(-c2ncc(OCC3CCN(C)CC3)cn2)c1)n1nc(-c2cccc(C#N)c2)ccc1=O` [Compound 13], for which, in series [1] (setting [4]), the IC50 worked out at 0.0035 µM.

On to `[2H]C([2H])([2H])[C@]([2H])(c1cccc(-c2ncc(OCC3CCN(C)CC3)cn2)c1)n1nc(-c2cccc(C#N)c2)ccc1=O` [Compound 14], for which, in series [1] (setting [4]), the IC50 is 0.0037 µM.

`[2H]C([2H])([2H])[C@@]([2H])(c1cccc(-c2ncc(OCC3CCN(C)CC3)cn2)c1)n1nc(-c2cccc(C#N)c2)ccc1=O` [Compound 15]: in series [1] (setting [4]), the IC50 was found to be 1.12 µM.

For the compound `CN1CCC(COc2cnc(-c3cccc(Cn4nc(-c5cccc(C#N)c5)ccc4=O)c3)nc2)CC1` [Compound 16], the IC50 in series [1] (setting [4]) was found to be 0.0134 µM.

Consider `CN1CCC(COc2cnc(-c3cccc(Cn4nc(-c5cccc(C#N)c5)ccc4=O)c3)nc2)CC1` [Tepotinib, reference compound], for which, in “in vitro” (SD, rat), the half-life worked out at 0.345 h. Further, the K in “in vitro” (rat liver microsomes, 37° C.) worked out at 0.0134 min⁻¹. The AUC(0-inf) in series [2] (mouse, IV 2 mg/kg, read-out: AUC0-∞) stood at 563 ng·h/mL. Besides, in series [2] (mouse, IV 2 mg/kg, read-out: CL (converted)), the clearance is 59.2 mL/min/kg. The half-life in series [2] (mouse, IV 2 mg/kg, read-out: T1/2 (converted)) is 1.79 h. Moreover, the bioavailability in series [2] (mouse, PO 5 mg/kg vs IV 2 mg/kg, read-out: F % (bioavailability)) turned out to be 67.8%. The AUC(0-inf) in series [2] (mouse, PO 5 mg/kg, read-out: AUC0-∞) turned out to be 982 ng·h/mL. Moreover, in series [2] (mouse, IV 2 mg/kg, read-out: Vz), the Vd was determined as 9.18 L/kg. Moreover, the peak concentration (Cmax) in series [2] (mouse, PO 5 mg/kg, read-out: Cmax) came to 211 ng/mL. The Tmax in series [2] (mouse, PO 5 mg/kg, read-out: Tmax) was found to be 1 h. In the series with tumor in naked mice (8 mg/kg intragastric), the “Relative tumor proliferation rate T/C (%)” value was 4.9%, the “Tumor inhibition rate (%)” value is 93.8% and the Tumor weights was determined as 0.041 ± 0.021. Also, the “body weights D 0” value in series [3] (D 0) came out at 24.9 ± 1.0. Further, the “body weights D 3” value in series [3] (D 3) is 25.1 ± 1.1. For the same compound, in series [3] (D 6), the “body weights D 6” value came out at 25.3 ± 1.0. The “body weights D 9” value in series [3] (D 9) is on record as 25.2 ± 1.1. In addition, the “body weights D 12” value in series [3] (D 12) amounted to 25.3 ± 1.0. Moreover, the “body weights D 14” value in series [3] (D 14) is on record as 25.1 ± 1.0.

For `C[C@]12CC[C@H]3[C@@H](CCC4=CC(=O)CC[C@@]43C)[C@@H]1CC[C@@H]2O` [testosterone, reference compound], in “in vitro” (rat liver microsomes, 37° C.), the “T1/2 (metabolic half-life in liver microsomes)” value is 2.3 min.
